In patent US12109207B2, “Methods of using 4(1H)-quinolone derivatives” (Academia Sinica, priority 2019, dated 2024):
Read-outs that look alike come from different tables or passages of the source. Blank lines part the entries; values can stand above or below the compound they belong to.

Assays:
H1975 cells = test: Cell cytotoxicity assay (MTS), H1975; format: cell-based, human
Procedure: (§1) Cells were seeded into the wells of 96-well plates (2000 cells/well). After an overnight culture, the cells were treated with different concentrations of a compound for 72 h. The CellTiter 96 AQueous one-solution cell proliferation assay (MTS) reagent was used to determine cytotoxicity. After treatment with a compound, 20 μL of the MTS reagent was added to each well and the plates were incubated at 37° C. for 1-4 h. Next, the absorbance at 490 nm of the culture medium in each well was determined using a VersaMax microplate reader (Molecular Devices).

KB = test: Cell cytotoxicity assay (MTS), KB; format: cell-based; settings: Homo sapiens
Procedure: as §1

CCRF-CEM = test: Cell cytotoxicity assay (MTS), CCRF-CEM; format: cell-based; settings: Homo sapiens
Procedure: as §1

KBtax = test: Cell cytotoxicity assay (MTS), KBtax; format: cell-based, human; settings: for IC50: Homo sapiens, KBtax, P-gp overexpressing, paclitaxel-selected KB subline; for RF, resistance factor (IC50 in resistant cell line/IC50 in parent cell line): KBtax vs KB
Procedure: as §1

KBvin = test: Cell cytotoxicity assay (MTS), KBvin; format: cell-based, human; settings: for IC50: Homo sapiens, KBvin, P-gp overexpressing, vincristine-selected KB subline; for RF, resistance factor (IC50 in resistant cell line/IC50 in parent cell line): KBvin vs KB
Procedure: as §1

CEM/VBL = test: Cell cytotoxicity assay (MTS), CEM/VBL; format: cell-based, human; settings: for RF, resistance factor (IC50 in resistant cell line/IC50 in parent cell line): CEM/VBL vs CCRF-CEM; for IC50: Homo sapiens, CEM/VBL, P-gp overexpressing, vinblastine-selected CCRF-CEM subline
Procedure: as §1

MDA-MB-231 = test: Cell cytotoxicity assay (MTS), MDA-MB-231; format: cell-based; settings: Homo sapiens, MDA-MB-231, 72 h
Procedure: as §1

[1] = system: human fibroblast (HFB) cells; test: Cell cytotoxicity assay (MTS), human fibroblast; format: cell-based; settings: normal cell line HFB
Procedure: as §1

HDQP1 = test: Cell cytotoxicity assay, HDQP1; format: cell-based; settings: Homo sapiens, HDQ-P1; TNBC cell line HDQP1
Procedure: as §1

HDQP1/TAX = test: Cell cytotoxicity assay, HDQP1/TAX; format: cell-based, human
Procedure: as §1

KBtax xenograft tumors = test: KBtax xenograft tumor model; format: in vivo, BALB/c nude mice; settings: after 21 days, i.p. three times a week; paclitaxel 15 mg/kg, RJ-LC-15-8 8 mg/kg
Procedure: Using the H1975, MDA-MB-231, and KBtax xenograft models, tumors were established after inoculation into the right flanks of 6-week-old BALB/c nude mice (NARLabs, Taipei, Taiwan). After establishment of the tumors, vehicle and test compounds, which had been dissolved in DMSO, were each injected intraperitoneally into a separate group of animals three times per week. The body mass of each animal and tumor volumes were measured before each drug delivery. Tumor volume was calculated as 0.5W^2L (with W being the width of the smaller diameter and L being the length of the larger diameter). The animal experiment was carried out in accordance with the procedures and guidelines of the Institutional Animal Care and Use Committee, Institute of Biomedical Sciences, Academia Sinica.

Purified porcine tubulin = target: T1, Purified porcine tubulin (Sus scrofa, UniProt P02554); test: In vitro tubulin polymerization assay; format: biochemical; settings: 5 μM, A340 every min for 1 h at 37° C.
T1 construct: purchased Cytoskeleton
Procedure: Reagents from a Tubulin Polymerization Assay kit (Cytoskeleton) were used according to the manufacturer's instructions. Purified porcine tubulin (4 mg/mL; >99% purity) in G-PEM buffer (80 mM PIPES, 2 mM MgCl2, 0.5 mM EGTA, 1 mM GTP, 15% glycerol, pH 6.9) was mixed with each test compound in the wells of a 96-well plate. Then, the A340 value was recorded each minute for 1 h at 37° C. with the VersaMax microplate reader.

[2] = Body mass and serum biochemical markers, KBtax xenograft mice; format: in vivo, BALB/c nude mice; settings: end of experiment; paclitaxel 15 mg/kg, RJ-LC-15-8 8 mg/kg; mean ± SEM
Procedure: The body mass of each animal and tumor volumes were measured before each drug delivery. Tumor volume was calculated as 0.5W^2L (with W being the width of the smaller diameter and L being the length of the larger diameter). The animal experiment was carried out in accordance with the procedures and guidelines of the Institutional Animal Care and Use Committee, Institute of Biomedical Sciences, Academia Sinica.

[3] = Homo sapiens, NCI-H1975, H1975 cells, cell-based SAR study, read-out: IC50
[4] = Homo sapiens, NCI-H1975, Table 8, cell line not given, values match H1975, read-out: IC50
[5] = Homo sapiens, NCI-H1975, 72 h, H1975 cells, 72 h, MTS, read-out: IC50

T1 sequence (P02554 whole entry): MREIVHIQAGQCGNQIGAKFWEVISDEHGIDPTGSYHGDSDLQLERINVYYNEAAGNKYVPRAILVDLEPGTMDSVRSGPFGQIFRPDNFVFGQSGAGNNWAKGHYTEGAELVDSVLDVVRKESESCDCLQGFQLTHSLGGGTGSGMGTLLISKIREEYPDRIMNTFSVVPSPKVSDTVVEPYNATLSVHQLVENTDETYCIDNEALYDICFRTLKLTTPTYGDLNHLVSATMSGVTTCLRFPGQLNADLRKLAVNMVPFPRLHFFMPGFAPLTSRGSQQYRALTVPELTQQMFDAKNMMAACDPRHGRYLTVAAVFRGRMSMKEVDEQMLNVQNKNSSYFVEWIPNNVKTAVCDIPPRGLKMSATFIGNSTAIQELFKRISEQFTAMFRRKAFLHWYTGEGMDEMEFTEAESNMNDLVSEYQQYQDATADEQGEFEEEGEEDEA
T1 sequence (P02550 whole entry partner): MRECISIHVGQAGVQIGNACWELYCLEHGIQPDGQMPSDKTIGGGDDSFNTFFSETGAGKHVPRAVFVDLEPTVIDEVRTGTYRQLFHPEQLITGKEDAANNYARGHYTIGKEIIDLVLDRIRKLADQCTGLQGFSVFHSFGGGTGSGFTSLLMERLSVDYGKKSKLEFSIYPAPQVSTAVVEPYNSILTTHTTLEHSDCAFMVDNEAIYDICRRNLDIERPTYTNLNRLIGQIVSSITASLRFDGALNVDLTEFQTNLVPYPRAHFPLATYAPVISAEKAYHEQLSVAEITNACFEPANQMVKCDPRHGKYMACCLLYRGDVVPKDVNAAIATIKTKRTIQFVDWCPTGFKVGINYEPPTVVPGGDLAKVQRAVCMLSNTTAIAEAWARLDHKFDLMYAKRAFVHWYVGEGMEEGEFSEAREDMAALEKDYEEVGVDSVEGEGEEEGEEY

Compound: CCOC(=O)c1ccc2[nH]c(-c3cccc(O)c3)cc(=O)c2c1 [RJ-LC-15-11, Ethyl 2-(3-hydroxyphenyl)-4-oxo-1,4-dihydroquinoline-6-carboxylate]
IC50 (H1975 cells; [3]): 1.95 µM
IC50 (H1975 cells; [4]): 1.95 ± 0.2 µM

Compound: CC(C)OC(=O)c1ccc2[nH]c(-c3ccccc3)cc(=O)c2c1 [RJ-LC-15-15, Isopropyl 4-oxo-2-phenyl-1,4-dihydroquinoline-6-carboxylate]
IC50 (H1975 cells; [5]): 0.048 µM
IC50 (H1975 cells; [4]): 0.048 ± 0.005 µM

Compound: CCOC(=O)c1cccc2[nH]c(-c3ccccc3)cc(=O)c12 [RJ-LC-15-17, Ethyl 4-oxo-2-phenyl-1,4-dihydroquinoline-5-carboxylate]
IC50 (H1975 cells; [4]): > 10 µM

Compound: C/C(=C\c1csc(C)n1)[C@@H]1C[C@@H]2O[C@]2(C)CCC[C@H](C)[C@H](O)[C@@H](C)C(=O)C(C)(C)[C@@H](O)CC(=O)N1 [Ixabepilone, ixabepilone]
IC50 (KB): 0.008 ± 0.00037 µM
IC50 (CCRF-CEM): 0.003 ± 6e-05 µM
IC50 (KBtax): 0.035 ± 0.00071 µM
RF, resistance factor (IC50 in resistant cell line/IC50 in parent cell line) (KBtax): 4.3
IC50 (KBvin): 0.193 ± 0.0242 µM
RF, resistance factor (IC50 in resistant cell line/IC50 in parent cell line) (KBvin): 24
RF, resistance factor (IC50 in resistant cell line/IC50 in parent cell line) (CEM/VBL): 50
IC50 (CEM/VBL): 0.15 ± 0.00659 µM

Compound: CCOC(=O)c1ccc2[nH]c(-c3ccc(OC)cc3)cc(=O)c2c1 [RJ-LC-15-4, Ethyl 2-(4-methoxyphenyl)-4-oxo-1,4-dihydroquinoline-6-carboxylate]
IC50 (H1975 cells; [3]): 2.2 µM
IC50 (H1975 cells; [4]): 2.2 ± 0.2 µM

Compound: CC(C)OC(=O)c1ccc2[nH]c(-c3cccc(F)c3)cc(=O)c2c1 [RJ-LC-15-23, Isopropyl 2-(3-fluorophenyl)-4-oxo-1,4-dihydroquinoline-6-carboxylate]
IC50 (H1975 cells; [5]): 0.006 ± 0.00216 µM
IC50 (H1975 cells; [4]): 0.006 ± 0.002 µM
IC50 (MDA-MB-231): 0.01 ± 0.0005 µM
IC50 [1]: > 10 µM

Compound: COC(=O)c1ccc2[nH]c(-c3ccccc3)cc(=O)c2c1 [RJ-LC-15-14, Methyl 4-oxo-2-phenyl-1,4-dihydroquinoline-6-carboxylate]
IC50 (H1975 cells; [5]): 0.207 µM
IC50 (H1975 cells; [4]): 0.207 ± 0.039 µM

Compound: CCOC(=O)c1ccc2[nH]c(-c3ccccc3)cc(=O)c2c1 [RJ-LC-15-19, Ethyl 4-oxo-2-phenyl-1,4-dihydroquinoline-6-carboxylate Methane Sulfonate]
IC50 (H1975 cells; Table 8, cell line not given, values match H1975, read-out: IC50): 0.069 ± 0.004 µM

Compound: O=C(Oc1ccccc1)c1ccc2[nH]c(-c3cccc(F)c3)cc(=O)c2c1 [RJ-LC-15-24, Phenyl 2-(3-fluorophenyl)-4-oxo-1,4-dihydroquinoline-6-carboxylate]
IC50 (H1975 cells; [4]): 0.3 ± 0.008 µM

Compound: CCOCc1ccc2[nH]c(-c3ccccc3)cc(=O)c2c1 [RJ-LC-15-16, 6-(ethoxymethyl)-2-phenylquinolin-4(1H)-one]
IC50 (H1975 cells; [5]): 0.81 µM
IC50 (H1975 cells; [4]): 0.81 ± 0.12 µM

Compound: O=C(OCCOCCOCCOCCO)c1ccc2[nH]c(-c3ccccc3)cc(=O)c2c1 [RJ-LC-15-3, 2-(2-(2-(2-hydroxyethoxy)ethoxy)ethoxy)ethyl 4-oxo-2-phenyl-1,4-dihydro quinoline-6-carboxylate]
IC50 (H1975 cells; [4]): 3.3 ± 0.99 µM

Compound: O=C(O)c1ccc2[nH]c(-c3ccccc3)cc(=O)c2c1 [RJ-LC-15-21, Sodium 4-oxo-2-phenyl-1,4-dihydroquinoline-6-carboxylate]
IC50 (H1975 cells; Homo sapiens, NCI-H1975): > 10 µM

Compound: COC(=O)c1ccc2[nH]c(-c3cccc(F)c3)cc(=O)c2c1 [RJ-LC-15-22, Methyl 2-(3-fluorophenyl)-4-oxo-1,4-dihydroquinoline-6-carboxylate]
IC50 (H1975 cells; [4]): 0.027 ± 0.006 µM

Compound: CCOC(=O)c1ccc2[nH]c(-c3cccc(C(F)(F)F)c3)cc(=O)c2c1 [RJ-LC-15-9, Ethyl 4-oxo-2-(3-(trifluoromethyl)phenyl)-1,4-dihydroquinoline Carboxylate]
IC50 (H1975 cells; [5]): 0.78 µM
IC50 (H1975 cells; [4]): 0.78 ± 0.012 µM

Compound: CCOC(=O)c1ccc2c(=O)cc(-c3ccccc3)[nH]c2c1 [RJ-LC-15-18, Ethyl 4-oxo-2-phenyl-1,4-dihydroquinoline-7-carboxylate]
IC50 (H1975 cells; [4]): 0.097 ± 0.003 µM

Compound: CCNC(=O)c1ccc2[nH]c(-c3ccccc3)cc(=O)c2c1 [RJ-LC-15-2, N-ethyl-4-oxo-2-phenyl-1,4-dihydroquinoline-6-carboxamide]
IC50 (H1975 cells; [3]): 3.7 µM
IC50 (H1975 cells; [4]): 3.7 ± 0.73 µM

Compound: O=C(O)c1ccc2[nH]c(-c3ccccc3)cc(=O)c2c1 [RJ-LC-15-1, 4-oxo-2-phenyl-1,4-dihydroquinoline-6-carboxylic Acid]
IC50 (H1975 cells; [3]): > 5 µM
IC50 (H1975 cells; [4]): > 5 µM

Compound: CCOC(=O)c1ccc2[nH]c(-c3ccc(Br)cc3)cc(=O)c2c1 [RJ-LC-15-6, Ethyl 2-(4-bromophenyl)-4-oxo-1,4-dihydroquinoline-6-carboxylate]
IC50 (H1975 cells; [3]): 4.5 µM
IC50 (H1975 cells; [4]): 4.5 ± 0.9 µM

Compound: CCNC(=O)c1ccc2[nH]c(-c3cccc(F)c3)cc(=O)c2c1 [RJ-LC-15-27, N-ethyl-2-(3-fluorophenyl)-4-oxo-1,4-dihydroquinoline-6-carboxamide]
IC50 (H1975 cells; [4]): 5.6 ± 0.39 µM

tubulin polymerization (Purified porcine tubulin): enhanced polymerization
BUN [2]: 19 ± 1.3 mg/dL
Cre [2]: 0.16 ± 0.02 mg/dL
Compound: CC(=O)O[C@H]1C(=O)[C@@]2(C)[C@H]([C@H](OC(=O)c3ccccc3)[C@]3(O)C[C@H](OC(=O)[C@H](O)[C@@H](NC(=O)c4ccccc4)c4ccccc4)C(C)=C1C3(C)C)[C@]1(OC(C)=O)CO[C@@H]1C[C@@H]2O [Paclitaxel, paclitaxel]
IC50 (CCRF-CEM): 0.004 ± 2e-05 µM
IC50 (KBtax): 0.101 ± 0.00552 µM
RF, resistance factor (IC50 in resistant cell line/IC50 in parent cell line) (KBtax): 10
IC50 (KBvin): 0.708 ± 0.0469 µM
RF, resistance factor (IC50 in resistant cell line/IC50 in parent cell line) (KBvin): 70
RF, resistance factor (IC50 in resistant cell line/IC50 in parent cell line) (CEM/VBL): 214
IC50 (CEM/VBL): 0.857 ± 0.00989 µM
IC50 (HDQP1): 0.005 ± 0.00305 µM
RF, resistance factor (IC50 in resistant cell line/IC50 in parent cell line) (HDQP1/TAX; HDQP1/TAX vs HDQP1): 167
IC50 (HDQP1/TAX; Homo sapiens, HDQ-P1, Paclitaxel-resistant subline): 0.839 ± 0.142 µM
average tumor size (KBtax xenograft tumors): 868.7±121.4 mm^3
AST(IU/L) [2]: 102.8 ± 18.9 IU/L

Compound: CCOC(=O)c1ccc2[nH]c(-c3cccc(OC)c3)cc(=O)c2c1 [RJ-LC-15-7, Ethyl 2-(3-methoxyphenyl)-4-oxo-1,4-dihydroquinoline-6-carboxylate]
IC50 (H1975 cells; [5]): 0.044 µM
IC50 (H1975 cells; [4]): 0.044 ± 0.001 µM

Compound: CCOC(=O)c1ccc2[nH]c(-c3ccc(F)cc3)cc(=O)c2c1 [RJ-LC-15-5, Ethyl 2-(4-fluorophenyl)-4-oxo-1,4-dihydroquinoline-6-carboxylate]
IC50 (H1975 cells; [3]): 2.1 µM
IC50 (H1975 cells; [4]): 2.1 ± 0.21 µM

Compound: CCOC(=O)c1ccc2[nH]c(-c3cccc(Br)c3)cc(=O)c2c1 [RJ-LC-15-25, Ethyl 2-(3-bromophenyl)-4-oxo-1,4-dihydroquinoline-6-carboxylate]
IC50 (H1975 cells; [4]): 0.07 ± 0.019 µM

Compound: CCOC(=O)c1ccc2[nH]c(-c3ccc(O)cc3)cc(=O)c2c1 [RJ-LC-15-10, Ethyl 2-(4-hydroxyphenyl)-4-oxo-1,4-dihydroquinoline-6-carboxylate]
IC50 (H1975 cells; [5]): 0.475 µM
IC50 (H1975 cells; [4]): 0.475 ± 0.031 µM

Compound: CCOC(=O)c1ccc2[nH]c(-c3cccc(F)c3)cc(=O)c2c1 [RJ-LC-15-20, Ethyl 2-(3-fluorophenyl)-4-oxo-1,4-dihydroquinoline-6-carboxylate Methanesulfonate]
IC50 (H1975 cells; Table 8, cell line not given, values match H1975, Methanesulfonate, read-out: IC50): 0.042 ± 0.004 µM

Compound: O=C(O)c1ccc2[nH]c(-c3cccc(F)c3)cc(=O)c2c1 [RJ-LC-15-26, 2-(3-fluorophenyl)-4-oxo-1,4-dihydroquinoline-6-carboxylic Acid]
IC50 (H1975 cells; [4]): > 10 µM
